Results taken from patent US20110160147A1, “NOVEL DUAL TARGETING A[…]” (priority 2008, published 2011).
Like-named read-outs stand apart in the source and are kept apart here.

Key:
[1] = target: αvβ3 receptor (Homo sapiens, UniProt P05106+P06756); assay: Solid-phase binding assay, inhibition of [125I]Echistatin binding to αvβ3 receptor
Method: (§1) The receptor binding assays were performed as described (Orlando R. A., et al., J. Biol. Chem. 1991, 266, 19543). αvβ3 and αvβ5 were diluted to 500 ng/ml and 1 μg/ml, respectively, in coating buffer (20 mM Tris, pH 7.4, 150 mM NaCl, 2 mM CaCl2, 1 mM MgCl2, 1 mM MnCl2) and an aliquot of 100 μL was added to a 96-well microtiter plate and incubated overnight at 4° C. The plate was washed once with blocking/binding buffer (50 mM Tris, pH 7.4, 100 mM NaCl, 2 mM CaCl2, 1 mM MgCl2, 1 mM MnCl2, 1% bovine serum albumin), and then was incubated for additional 2 h at RT The plate was rinsed twice with the same buffer and incubated for 3 h at RT with radiolabeled ligand [^125I]Echistatin (Amersham Pharmacia Biotech) 0.05 nM (0.1 nM for αv β5) in the presence of competing inhibitors. After the incubation, the wells were washed and radioactivity was determined with a gamma-counter (Packard). Non-specific binding of ligand was determined with molar excess (200 nM) of cold echistatin.
(§2) The IC50 values reported in Tables 1 and 2 were calculated as the concentrations of compounds required for 50% inhibition of echistatin binding and were estimated by the Prism GraphPad program. The Ki of the competing ligands were calculated according to the Cheng-Prusoff equation (Cheng Y. C., et al., Biochem. Pharmacol., 1973, 22, 3099). Values are the mean±log standard error of triplicate determinations from two independent experiments.

[2] = target: αvβ5 receptors (Homo sapiens, UniProt P06756+P18084); assay: Solid-phase binding assay, inhibition of [125I]Echistatin binding to αvβ5 receptors
Method: as §1, §2

[3] = tested on: A2780 ovarian carcinoma cells; type: cell-based, human; settings: A2780, 1 h of treatment; read-out: IC50 ± SD, antiadhesive effect to vitronectin
Method: (§3) A2780 human ovarian carcinoma and PC3 prostate carcinoma cells were grown in medium culture RPMI 1640 containing 10% fetal bovine serum and 50 μg/ml gentamycin sulfate. Cells were maintained in a 37° C. incubator with saturated humidity and an atmosphere of 95% air and 5% CO2. A2780 tumour cell line expresses high levels of αvβ5 integrin, and PC3 low levels of both integrins.
(§4) In 96-well tissue culture plates, 50 μl/well of a solution of vitronectin (5 μg/ml) were added for 2 h at room temperature. The solutions were removed upsetting the plates. 50 μl/well of a solution 1% BSA were added for 1 h at RT. The plates were washed by addition of 100 μl/well of medium culture RPMI 1640 without fetal calf serum (FCS). The washing was repeated twice. The molecules were added at different concentrations in the range between 0.039 μM and 20 μM. The solutions were prepared by dilution 1:2 in medium culture without FCS. Tumour cells in the flasks were washed in saline solution before to be detached by scraper, by the addition of 5 ml of medium culture without FCS and 1% BSA. Tumour cells were counted after resuspension and added at an appropriate cellular density (40000-50000 cells/well). The plates were incubated for 1 h at 37° C. in humidified incubator with 5% CO2. Then, the solutions were removed upsetting the plates and washed once with 200 μl/well of PBS with Ca^2+ e Mg^2+. Tumour cells were fixed with 100 μl of a solution 4% paraformaldehyde in 0.2 M Sorensen phosphate buffer pH 7.2-7.4 for 10 min at RT The plates were upset and 100 μl of 1% Toluidine Blu solution were added for 10 min at RT The plates were washed twice by immersion in bi-distilled water and then dried at 60° C. in thermostat incubator (Kottermann). 100 μl/well of 1% SDS were added. The plates were kept under stirring for 20 min at RT and were then evaluated by Victor 1420 multilabel counter (Wallac) at 600 nm.
(§5) The IC50 value as parameter to measure the inhibiting effect of the molecules on tumour cell adhesion to vitronectin was evaluated using “ALLFIT” computer program.

[4] = tested on: PC3 prostate carcinoma cells; type: cell-based, human; settings: PC3, 1 h of treatment; read-out: IC50 ± SD, antiadhesive effect to vitronectin
Method: as §3, §4, §5

[5] = tested on: PC3 prostate carcinoma cells; assay: Cytotoxicity, sulphorodamine B test (PC3); type: cell-based, human; settings: PC3, 72 h of treatment; read-out: IC50 ± SD, cytotoxicity
Method: To evaluate the effect of the compound on survival cells, the sulphorodamine B test was used. To measure the effects of the compounds on cell growth, PC3 human prostate carcinoma and A2780 human ovarian carcinoma cells were used. A2780 and PC3 tumour cells were grown RPMI 1640 containing 10% fetal bovine serum (GIBCO).
Tumour cells were seeded in 96-well tissue culture plates at approximately 10% confluence and were allowed to attach and recover for at least 24 h. Varying concentrations of the drugs were then added to each well to calculate their IC50 value (the concentration which inhibits the 50% of cell survival). The plates were incubated at 37° C. for 72 h. At the end of the treatment, the plates were washed by removal of the supernatant and addition of PBS 3 times. 200 μl PBS and 50 μl of cold 80% trichloroacetic acid (TCA) were added. The plates were incubated on ice for at least 1 h. TCA was removed and the plates were washed 3 times by immersion in distilled-water and dried on paper and at 40° C. for 5 min. Then 200 μl of 0.4% sulphorodamine B in 1% acetic acid were added. The plates were incubated at RT for further 30 min. Sulphorodamine B was removed, the plates were washed by immersion in 1% acetic acid 3 times, then they were dried on paper and at 40° C. for 5 min. Then 200 μl Tris 10 mM were added, the plates were kept under stirring for 20 min. The cell survival was determined by means of optical density using a Multiskan spectrofluorimeter at 540 nm. The amount of cells killed was calculated as the percentage decrease in sulphorodamine B binding compared with control cultures.
The IC50 values were calculated with the “ALLFIT” program.

[6] = tested on: PC3 prostate ca. xenografted in CD1 nude mice; assay: Antimetastatic activity on bone metastases induced by intracardiac injection of PC3 human prostate carcinoma; type: in vivo
Method: Male CD1 nude mice were anesthetized by 4 ml/kg of a mixture (xylazine:ketavet 100) given i.p. PC3 tumour cells were inoculated by intracardiac injection (1×10^5 cells/0.1 ml/mouse) into the heart left ventricle of mice using a 27-gauge needle. Mice were subdivided (11 mice/group) in the following experimental groups and after three days from tumour injection the molecules were administered as described:
Vehicle (DMSO 10%) i.v. q4d×4.
To evaluate the antitumour activity of the drug, high-resolution total body radiological analysis was carried out by using Faxitron system. Radiological analysis was carried out 30 days after tumour injection. Body weight recordings were carried out through the study and mortality was noted.

Sequence of αvβ5 receptors (P06756 31-889 limits assumed): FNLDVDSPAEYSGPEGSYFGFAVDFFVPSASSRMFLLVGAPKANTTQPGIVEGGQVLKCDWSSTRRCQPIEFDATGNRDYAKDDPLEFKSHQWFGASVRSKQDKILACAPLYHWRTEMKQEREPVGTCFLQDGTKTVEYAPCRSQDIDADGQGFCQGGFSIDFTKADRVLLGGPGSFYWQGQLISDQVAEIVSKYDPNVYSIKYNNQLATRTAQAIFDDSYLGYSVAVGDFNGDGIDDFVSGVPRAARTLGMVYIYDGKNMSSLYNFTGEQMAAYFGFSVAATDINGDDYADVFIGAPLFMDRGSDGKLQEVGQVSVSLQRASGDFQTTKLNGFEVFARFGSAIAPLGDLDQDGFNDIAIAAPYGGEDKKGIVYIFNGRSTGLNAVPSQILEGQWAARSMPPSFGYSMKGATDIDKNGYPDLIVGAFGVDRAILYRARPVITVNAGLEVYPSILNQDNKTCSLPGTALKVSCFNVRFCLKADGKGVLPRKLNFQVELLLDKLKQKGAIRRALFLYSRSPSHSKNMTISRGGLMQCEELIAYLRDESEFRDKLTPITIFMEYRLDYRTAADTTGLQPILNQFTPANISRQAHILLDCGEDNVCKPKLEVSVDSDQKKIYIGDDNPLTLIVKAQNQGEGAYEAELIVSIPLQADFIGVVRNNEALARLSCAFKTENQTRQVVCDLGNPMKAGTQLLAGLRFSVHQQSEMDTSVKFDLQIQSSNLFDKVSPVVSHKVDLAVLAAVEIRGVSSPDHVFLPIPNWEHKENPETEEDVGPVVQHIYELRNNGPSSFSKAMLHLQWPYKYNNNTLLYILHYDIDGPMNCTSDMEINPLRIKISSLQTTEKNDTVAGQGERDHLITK
Sequence of αvβ5 receptors (P06756 891-1048 partner limits assumed): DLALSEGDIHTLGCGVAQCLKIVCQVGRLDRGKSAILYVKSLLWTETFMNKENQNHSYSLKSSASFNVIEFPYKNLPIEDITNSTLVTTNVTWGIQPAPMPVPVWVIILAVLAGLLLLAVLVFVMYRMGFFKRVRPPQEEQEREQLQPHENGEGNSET
Sequence of αvβ5 receptors (P18084 24-799): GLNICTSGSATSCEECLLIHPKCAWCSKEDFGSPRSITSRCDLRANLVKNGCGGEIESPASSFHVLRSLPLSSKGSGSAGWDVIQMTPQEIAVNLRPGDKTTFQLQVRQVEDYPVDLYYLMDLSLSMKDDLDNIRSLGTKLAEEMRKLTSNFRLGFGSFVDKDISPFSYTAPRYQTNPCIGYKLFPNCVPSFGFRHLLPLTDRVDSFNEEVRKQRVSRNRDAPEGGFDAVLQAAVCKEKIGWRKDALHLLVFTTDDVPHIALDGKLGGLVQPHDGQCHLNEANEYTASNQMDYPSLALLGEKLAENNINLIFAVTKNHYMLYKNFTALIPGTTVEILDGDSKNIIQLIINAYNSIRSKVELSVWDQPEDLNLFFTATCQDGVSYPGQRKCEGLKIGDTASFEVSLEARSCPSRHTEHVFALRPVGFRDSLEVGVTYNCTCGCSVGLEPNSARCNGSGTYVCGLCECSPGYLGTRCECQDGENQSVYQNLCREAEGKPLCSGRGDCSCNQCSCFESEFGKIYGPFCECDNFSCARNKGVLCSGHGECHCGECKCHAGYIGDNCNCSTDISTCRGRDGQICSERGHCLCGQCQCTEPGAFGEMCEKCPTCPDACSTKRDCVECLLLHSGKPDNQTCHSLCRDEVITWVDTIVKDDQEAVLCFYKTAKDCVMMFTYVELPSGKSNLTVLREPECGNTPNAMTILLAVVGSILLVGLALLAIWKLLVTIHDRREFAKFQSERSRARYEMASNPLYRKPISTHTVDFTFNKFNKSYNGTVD
Sequence of αvβ3 receptor (P06756 31-889 limits assumed): as the sequence (P06756 31-889 limits assumed) above
Sequence of αvβ3 receptor (P06756 891-1048 partner limits assumed): as the sequence (P06756 891-1048 partner limits assumed) above
Sequence of αvβ3 receptor (P05106 27-788): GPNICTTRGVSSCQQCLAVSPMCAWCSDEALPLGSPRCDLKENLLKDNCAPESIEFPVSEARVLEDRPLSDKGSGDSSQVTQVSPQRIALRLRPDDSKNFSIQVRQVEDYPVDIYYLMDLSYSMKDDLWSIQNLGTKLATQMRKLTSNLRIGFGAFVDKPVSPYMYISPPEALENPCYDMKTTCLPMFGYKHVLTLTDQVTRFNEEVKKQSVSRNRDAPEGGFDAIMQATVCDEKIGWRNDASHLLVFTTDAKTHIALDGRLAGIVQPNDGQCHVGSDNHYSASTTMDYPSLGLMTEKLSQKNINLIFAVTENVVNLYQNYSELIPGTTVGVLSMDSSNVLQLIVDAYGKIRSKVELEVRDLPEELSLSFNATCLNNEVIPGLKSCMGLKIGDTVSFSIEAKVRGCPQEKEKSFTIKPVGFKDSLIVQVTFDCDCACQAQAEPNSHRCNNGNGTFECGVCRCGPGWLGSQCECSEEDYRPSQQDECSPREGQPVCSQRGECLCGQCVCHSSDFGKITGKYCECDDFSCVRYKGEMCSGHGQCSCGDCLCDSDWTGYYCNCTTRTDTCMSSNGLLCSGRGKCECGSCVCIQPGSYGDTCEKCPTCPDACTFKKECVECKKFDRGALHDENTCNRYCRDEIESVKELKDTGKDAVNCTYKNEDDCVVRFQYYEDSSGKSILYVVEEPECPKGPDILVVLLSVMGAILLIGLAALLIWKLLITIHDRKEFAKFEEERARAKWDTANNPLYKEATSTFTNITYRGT

CC[C@@]1(O)C(=O)OCc2c1cc1n(c2=O)Cc2c-1nc1ccccc1c2C=NOCCNC(=O)OCc1ccc(NC(=O)[C@H](CCCNC(N)=O)NC(=O)[C@H](C)NC(=O)COCCOCCOCC(=O)NCc2ccc(C[C@@H]3NC(=O)[C@@H](Cc4ccccc4)NC(=O)[C@H](CC(=O)O)NC(=O)CNC(=O)[C@H](CCCNC(=N)N)NC3=O)cc2)cc1 [ST3833]
IC50 [1]: 78.4 ± 1.5 nM | Ki [1]: 61 nM | IC50 [2]: 87.8 ± 1.21 nM | Ki [2]: 68.2 nM | IC50 [3]: 900 ± 50 nM | IC50 [4]: 2100 ± 200 nM | IC50 [5]: 4600 ± 800 nM | BWL % (maximum body weight loss) ([6]; 56 mg/10 ml/kg i.v. q4dx4): 0% | Lethal toxicity (dead/treated animals) ([6]; 56 mg/10 ml/kg i.v. q4dx4): 0/11 | MST (median survival time) ([6]; 56 mg/10 ml/kg i.v. q4dx4): 58 days | Incidence of osteolytic lesions (mice with metastases) ([6]; 56 mg/10 ml/kg i.v. q4dx4, 30 days after tumour injection): 5/11 | tolerability ([6]; 56 mg/kg iv (q4dx4), no reduction of body weight or lethal toxicity): well tolerated | incidence of osteolytic lesions, % of mice ([6]; 56 mg/kg iv q4dx4, vehicle-treated group 91%): 45%
